Assay results reported in patent publication US10806794B2, “Protease inhibitors having enhanced features” (priority 2008, dated 2020).
Like-named read-outs stand apart in the source and are kept apart here.

Columns and labels:
human monocytes = assay: Toxicity in human monocytes in the absence of viral infection; settings: human
Protocol: (§1) Fresh human monocytes were infected with the BaL strain of HIV-1 in the presence of test compounds. After seven days in culture, HIV-1 replication was evaluated by measurement of HIV-1 viral capsid protein (p24) in the tissue culture supernatant (Table 7). […] A TI was calculated as described above using TC50 values derived from cell toxicity data in response to test compounds in the absence of viral infection.

HIV-1BaL = assay: HIV-1 p24 levels after infection of fresh human monocyte/macrophages; format: cell-based; settings: Human immunodeficiency virus 1, Monocyte, 168 h, read-out: Monocyte/HIV-1BaL EC50, seven days, p24
Protocol: Mononuclear cells were isolated from fresh human peripheral blood cells by Ficoll-Hypaque density gradient by centrifugation at 600 g for 30 minutes. Banded peripheral blood mononuclear cells (PBMCs) were aspirated from the resulting interface and washed with phosphate buffered saline by low speed centrifugation. […] Cells were allowed to attach for 2 to 12 h at 37° C., then washed with Dulbecco's phosphate buffered saline (DPBS). Monocyte-macrophage monolayer formation was induced by incubation in growth medium (RPMI 1640 medium supplemented with 10% fetal bovine serum, 2 mmol/L L-glutamine, 100 Units/mL penicllin and 10 μg/mL streptomycin) for 7 days. Residual PBMCs were removed by washing the cell monolayers with DPBS. After washing, test compound diluted in growth medium was added to cells. Immediately following test compound addition, HIV-1 virus was added to the cells at multiplicity of infection (MOI)=0.05-0.10. After 7 days in culture, HIV-1 replication was quantified by ELISA measurement of cell-free HIV-1 viral capsid protein (p24) in the tissue culture supernatant of treated monocyte-macrophage monolayers. ELISA to quantify p24 was performed according to manufacturer's instructions (Perkin Elmer, Waltham, Mass.). The quantity of free HIV-1 p24 antigen in the sample was determined by comparing its absorbance at 490 nm to that of control standards.
as §1

HIV-1RF [1] = assay: p24 levels after single high MOI HIV-1RF infection of CEM-SS cells, time of addition; format: cell-based
Protocol: The cytoprotective effect against HIV of the PEG-protease inhibitor conjugates was evaluated during a single round of high multiplicity of infection (“MOI”) HIV-1 infection in CEM-SS cells. CEM-SS cells were incubated for one hour with a single high MOI dose of HIV-1RF. Cells were washed to remove free virus, then test compounds were added to cells at 0, 2, 4, 6, 8, 16, or 24 hours after HIV-1 infection. To monitor viral replication, cell supernatants were analyzed at 30 hours post-infection for levels of the HIV capsid protein p24 (FIG. 1). […] Nevirapine inhibited viral replication at 1 μM when added to cells up to four hours post-infection, and at 10 μM when added up to eight hours post-infection.

[2] = Plasma protein binding by equilibrium dialysis, human plasma; format: in vitro ADME; settings: human, plasma
Protocol: (§2) In assays to estimate binding of test compounds to plasma proteins, test compound solutions (5 μM) are prepared in buffer and species-specific plasma (final DMSO concentration 0.5%). The plasma-containing solution is added to one side of the membrane of an equilibrium dialysis system, and the plasma-free is added to the other side. Dialysis was allowed to reach equilibrium by incubation for two hours at 37° C. The concentration of compound on both sides of the membrane was measured using LC-MS/MS.

HIV-1 HT/92/599 = assay: HIV-1 reverse transcriptase activity after infection of fresh human PBMCs; format: cell-based; settings: read-out: PBMC/HIV-1HT/92/599 EC50 ± SD; seven days, reverse transcriptase activity
Protocol: Fresh human peripheral blood mononuclear cells (PBMCs) obtained from a commercial source were purified following centrifugation using a Ficoll-Hypaque density gradient. Viable cells were induced to proliferate in the presence of PHA-P and recombinant human IL-2 for 72 hours. […] Cell supernatant containing HIV-1 viral was incubated for 90 minutes at 37° C. with a reaction mixture containing EGTA, Triton X-100, Tris (pH 7.4), DTT, MgCl2, poly rA, oligo dT, and tritiated thymidine triphosphate (TTP). Incorporation of TTP into DNA was monitored by spotting the reaction mixture onto a DEAE filter mat, followed by washes with 5% phosphate buffer, distilled water, and 70% ethanol, and subsequent drying of the mat. Radioactivity was measured using a Wallac 1450 Microbeta Trilux liquid scintillation counter using Opti-Fluor O. Test compound-associated toxicity was measured in PBMCs cultured for seven days in the absence of virus using XTT reagent. […] TI was calculated as TC50/EC50.

HIV-1 virions = assay: Infectivity of HIV-1 virions from treated cells on naive CEM-SS cells; format: cell-based
Protocol: In concert with p24 analysis, cell supernatants collected from cells exposed to test compounds at 8, 16, or 24 hours post-infection were used to infect naïve CEM-SS cells. Cell viability was measured six days post-infection as a measure of virus infectivity (Table 5).

CEM-SS cells = assay: Post-exposure assay: toxicity in CEM-SS cells; settings: human
Protocol: (§3) The effects of pre- and post-infection PI treatment on CEM-SS toxicity were assessed. […] Cell toxicity was monitored six days after infection using XTT reagent. In the post-exposure assay, test compounds were added to cells 0, 24, 48, or 72 h after HIV-1 infection, and cell viability was measured six days post-infection.

HIV-1RF [3] = assay: Pre-exposure assay: CEM-SS cells treated before HIV-1RF infection, cell viability; format: cell-based; settings: Human immunodeficiency virus 1, CEM-SS
Protocol: as §3

HIV-1RF [4] = assay: Post-exposure assay: compounds added after HIV-1 infection of CEM-SS cells, cell viability; format: cell-based; settings: Human immunodeficiency virus 1, CEM-SS
Protocol: as §3

HIV-1RF [5] = assay: Anti-HIV cytoprotection in CEM-SS cells infected with HIV-1RF (XTT); format: cell-based; settings: six days, XTT; read-out: CEM-SS/HIV-1RF EC50 ± SD
Protocol: To evaluate whether conjugated protease inhibitors retain the ability to protect against HIV-1 infection, CEM-SS cells infected with the RF strain of HIV-1 were treated with test compounds for six days, and then cell viability was monitored using the tetrazolium dye XTT. […] A value for Therapeutic Index (TI) was calculated as TC50/EC50.

[6] = Metabolic stability in human liver microsomes; settings: human liver microsomes, 3 μM
Protocol: The human liver microsome-mediated biotransformation of PEG-PI compounds was determined by monitoring the loss of the substrate as a function of time. […] Test compounds (3 μM final concentration) were preincubated with pooled (male and female) human liver microsomes (0.5 mg/mL final protein concentration) in buffer (0.1M phosphate buffer, pH 7.4) at 37° C. Reactions were initiated by the addition of NADPH (1 mM final concentration), and allowed to continue for 0, 5, 15, 30, and 45 minutes. […] Sample supernatants are analyzed by liquid chromatography-tandem mass spectrometry.

CYP3A4 [7] = molecular target: T1, CYP3A4 (Homo sapiens (Human), UniProt P08684); assay: Metabolic stability in CYP3A4-expressing Bactosomes; format: in vitro ADME; settings: 5 μM
Protocol: (§4) Compounds were evaluated for their propensity to act as substrates of individual human cytochrome P450 enzymes using a bacterial membrane preparation co-expressing human NADPH-cytochrome P450 reductase with either human CYP3A4 or CYP2D6 (Bactosomes™ Cypex, Ltd., Dundee, UK). In vitro metabolism studies using Bactosomes™ expressing individual human CYP isoforms monitor the extent to which a test compound is metabolized by a single CYP450 enzyme and allow identification of the CYP isoforms that may be responsible for the metabolism of a test compound. Timecourse analyses of test molecules (5 μM) with CYP2D6- or CYP3A4-expressing Bactosomes™ (100 pmol/mL) are performed in buffer (0.1 M phosphate, pH 7.4) in a final reaction volume of 25 μL. […] Reactions are terminated by the addition of methanol (50 μL) containing internal standard at 0, 5, 15, 30, and 45 minutes.

human hepatocytes = assay: Metabolic stability in cryopreserved human hepatocytes; settings: human hepatocytes
Protocol: Metabolism of PI conjugates was investigated by monitoring the levels of unmetabolized parent compound following incubation with cryopreserved human or monkey hepatocytes. The use of whole hepatocytes rather than microsomes requires that the drugs cross the cell membrane to interact with intracellularly-localized metabolic enzymes, and thus provides the most relevant in vitro system for understanding overall metabolic stability of these compounds.
Test compounds (0.1 μM or 3 μM, as indicated) are incubated with cryopreserved human hepatocytes at a cell density of 0.5×10^6 viable cells/mL. […] Duplicate samples (50 μL) are removed from the incubation mixture at various timepoints up to four hours (for 0.1 μM test compound concentration), or one or two hours (for 3 μM test compound concentration), and the reaction is quenched by the addition of methanol containing internal standard (100 μL). The samples are centrifuged (2500 rpm at 4° C. for 20 min), and the supernatants at each time point pooled for cassette analysis by LC-MS/MS.

CYP2D6 = CYP2D6 (Homo sapiens (Human), UniProt P10635); assay: Metabolic stability in CYP2D6-expressing Bactosomes; format: in vitro ADME; settings: 5 μM
Protocol: as §4

[8] = test system: human liver microsomal proteins; assay: Microsomal protein binding by equilibrium dialysis; format: in vitro ADME; settings: human liver microsomes, 3 μM, fraction unbound
Protocol: PEGylated protease inhibitors were evaluated for their propensity to be bound by proteins in normal human plasma or in human liver microsome preparations using equilibrium dialysis analysis. For microsomal protein binding, test compound (final concentration=3 μM) was diluted into either buffer alone or buffer containing human liver microsomes. The protein-free and microsome-containing solutions were then added to either side of an equilibrium dialysis system and allowed to reach equilibrium at 37° C. The concentration of compound on both sides of the membrane at equilibrium was quantified by LC-MS/MS, and the fraction of compound that remains unbound (Fu) is calculated.

human plasma proteins = assay: Plasma protein binding by equilibrium dialysis, human plasma; format: in vitro ADME; settings: human plasma, 5 μM, fraction unbound
Protocol: as §2

CYP3A4 [9] = molecular target: T1, CYP3A4; assay: CYP450 inhibition in human liver microsomes: CYP3A4;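 further: incubation at 37 °C started by adding 1 mM NADPH, with formation of the probe metabolite measured via LC-MS/MS or fluorescent detection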
Caco-2 cells = assay: Bi-directional permeability in Caco-2 monolayers; settings: Caco-2 monolayers, apical to basolateral
Protocol: Absorption properties of various compounds were measured using bi-directional permeability assays in Caco-2 cells. […] The efflux ratio is calculated as the ratio of the Papp(B→A)/Papp(A→B).

T1 sequence (P08684 whole entry, canonical isoform): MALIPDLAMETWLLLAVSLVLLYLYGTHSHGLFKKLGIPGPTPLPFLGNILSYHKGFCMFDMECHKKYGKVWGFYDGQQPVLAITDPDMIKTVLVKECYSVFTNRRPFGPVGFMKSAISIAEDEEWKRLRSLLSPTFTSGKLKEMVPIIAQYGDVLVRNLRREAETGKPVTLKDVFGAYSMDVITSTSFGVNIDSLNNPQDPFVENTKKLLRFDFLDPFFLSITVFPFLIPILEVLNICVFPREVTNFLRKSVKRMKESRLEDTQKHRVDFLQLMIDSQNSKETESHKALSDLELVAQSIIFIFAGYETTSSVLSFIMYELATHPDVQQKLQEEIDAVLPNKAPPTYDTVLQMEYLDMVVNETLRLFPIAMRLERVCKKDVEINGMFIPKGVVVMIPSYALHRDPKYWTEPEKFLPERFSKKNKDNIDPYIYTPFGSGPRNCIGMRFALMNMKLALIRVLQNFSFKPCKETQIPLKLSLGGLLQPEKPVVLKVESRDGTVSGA
Sequence of CYP2D6 (P10635 whole entry): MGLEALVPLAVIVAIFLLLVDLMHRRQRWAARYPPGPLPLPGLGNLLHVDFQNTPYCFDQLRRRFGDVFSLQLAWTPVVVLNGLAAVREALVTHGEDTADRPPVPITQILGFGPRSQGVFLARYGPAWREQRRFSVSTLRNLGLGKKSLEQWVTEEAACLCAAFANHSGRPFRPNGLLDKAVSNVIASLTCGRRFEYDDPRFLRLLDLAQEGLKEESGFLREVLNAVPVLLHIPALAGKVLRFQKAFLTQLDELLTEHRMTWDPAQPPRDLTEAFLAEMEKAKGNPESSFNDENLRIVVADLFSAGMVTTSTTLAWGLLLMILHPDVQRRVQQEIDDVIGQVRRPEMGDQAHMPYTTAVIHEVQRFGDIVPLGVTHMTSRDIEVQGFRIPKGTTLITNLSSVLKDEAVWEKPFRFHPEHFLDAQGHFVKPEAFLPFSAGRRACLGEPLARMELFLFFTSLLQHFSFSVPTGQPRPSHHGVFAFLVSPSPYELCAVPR

CC(C)(C)NC(=O)[C@@H]1C[C@@H]2CCCC[C@@H]2CN1C[C@@H](O)[C@H](Cc1ccccc1)NC(=O)[C@H](CC(N)=O)NC(=O)c1ccc2ccccc2n1 [Saquinavir]
TC50 (human monocytes): >1000 nM
EC50 (HIV-1BaL): 40 nM
time of addition up to which antiviral activity (reduced p24) was seen (HIV-1RF [1]; 0.1 μM): up to 16 hours post-infection
time of addition up to which antiviral activity (reduced p24) was seen (HIV-1RF [1]; 1 μM): up to 24 hours post-infection
fraction unbound at 2 h, 5 μM [2]: 0.0353 ± 0.00151
EC50 (HIV-1 HT/92/599): 9 nM
Percent Infectivity of HIV-1 Virions in comparison to virus-alone control (HIV-1 virions; 0.01 μM, added 8 h post-infection): 100.0%
Percent Infectivity of HIV-1 Virions in comparison to virus-alone control (HIV-1 virions; 0.01 μM, added 16 h post-infection): 117.0%
Percent Infectivity of HIV-1 Virions in comparison to virus-alone control (HIV-1 virions; 0.01 μM, added 24 h post-infection): 404.8%
Percent Infectivity of HIV-1 Virions in comparison to virus-alone control (HIV-1 virions; 0.1 μM, added 8 h post-infection): 5.6%
Percent Infectivity of HIV-1 Virions in comparison to virus-alone control (HIV-1 virions; 0.1 μM, added 16 h post-infection): 10.0%
Percent Infectivity of HIV-1 Virions in comparison to virus-alone control (HIV-1 virions; 0.1 μM, added 24 h post-infection): 128.0%
reduction of virion infectivity vs virus-only control (HIV-1 virions; 1 μM at 24 hours post-infection): ~90%
Percent Infectivity of HIV-1 Virions in comparison to virus-alone control (HIV-1 virions; 1 μM, added 8 h post-infection): 0.1%
Percent Infectivity of HIV-1 Virions in comparison to virus-alone control (HIV-1 virions; 1 μM, added 16 h post-infection): 7.8%
Percent Infectivity of HIV-1 Virions in comparison to virus-alone control (HIV-1 virions; 1 μM, added 24 h post-infection): 12.8%
reduction of virion infectivity vs virus-only control (HIV-1 virions; 0.1 or 1 μM at 8 and 16 hours post-infection): at least 90%
TC50 (CEM-SS cells; 3 days): >1000 nM
TC50 (CEM-SS cells; 4 days): >1000 nM
TC50 (CEM-SS cells; 5 days): >1000 nM
TC50 (CEM-SS cells; 6 days): >1000 nM
EC50 (HIV-1RF [3]; 2 h): 20 nM
EC50 (HIV-1RF [3]; 8 h): 50 nM
EC50 (HIV-1RF [3]; 24 h): 40 nM
EC50 (HIV-1RF [4]; 0 h): < 3 nM
EC50 (HIV-1RF [4]; 24 h): 4 nM
EC50 (HIV-1RF [4]; 48 h): 5 nM
EC50 (HIV-1RF [4]; 72 h): 10 nM

COCCOCCOCCNc1ccc(S(=O)(=O)N(CC(C)C)CC(O)[C@H](Cc2ccccc2)NC(=O)O[C@H]2CO[C@H]3OCC[C@H]32)cc1 (some centres unmarked) [mPEG3-N-Darunavir]
EC50 (HIV-1RF [5]): < 0.7 nM
CLint ± SEM [6]: 385 ± 0.718 μL/min/mg protein
t1/2 [6]: 3.60 min
3A4 t1/2 ± SEM (CYP3A4 [7]): 66.6 ± 4.88 min
CLint ± SEM (human hepatocytes; 0.1 uM, up to four hours): 48.0 ± 4.75 μL/min/10^6 cells
t1/2 (human hepatocytes; 0.1 uM, up to four hours): 28.9 min
CLint ± SEM (human hepatocytes; 3 uM, incubated up to one hour): 18.2 ± 1.47 μL/min/10^6 cells
2D6 t1/2 ± SEM (CYP2D6): 68.4 ± 18.9 min
Microsomal Protein Binding Fu ± SD [8]: 0.96 ± 0.0407
Plasma Protein Binding Fu ± SD (human plasma proteins): 0.236 ± 0.0292
IC50 (CYP3A4 [9]; read-out: CYP3A4 IC50 Midazolam, probe substrate midazolam): 1200 nM
IC50 (CYP3A4 [9]; read-out: CYP3A4 IC50 Testosterone, probe substrate testosterone): 3100 nM
A→B, ×10^−6 (Caco-2 cells): 2.52 cm/s
